Reference: US8492379B2, “Translocator protein ligands” (The University of Sydney, priority 2007, dated 2013)

What was measured:
TSPO = TSPO (Rattus norvegicus (Rat), UniProt P16257); experiment: In vitro binding affinity, 3H-PK11195 displacement in kidney mitochondria; settings: 0.6 nM 3H-PK11195, mitochondria from kidneys of male Wistar rats, 90 min at 4° C.
Experimental: 3H-PK11195 (specific activity 322 GBq/mmol) and 3H-Ro 15-1788 (specific activity 311 GBq/mmol) were purchased from Dupont-New England Nuclear. For binding studies, mitochondria were prepared as described in Trapani G., et al. J Med Chem. 1997; 40:3109-3118, with minor modifications as described here, from the kidneys of male Wistar rats killed by cervical dislocation. The kidneys were homogenized in 20 volumes of ice-cold 50 mM Tris-HCl (pH 7.4), 0.32 M sucrose, and 1 mM ethylenediaminetetraacetic acid (buffer A) containing protease inhibitors (benzamidine at […], bacitracin at […], and soybean trypsin inhibitor at […]) with a Teflon (DuPont) pestle in a glass homogenizer and centrifuged at 600 g for 10 min at 4° C. The resulting supernatant was centrifuged at 10,000 g for 10 min at 4° C. The pellet was suspended in 20 volumes of ice cold buffer A and centrifuged at 10,000 g for 10 min at 4° C. The crude mitochondrial pellet was frozen at −20° C. until the time of the assay or incubated with 0.6 nM 3H-PK11195 in 50 mM Tris-HCl (pH 7.4) (buffer B) with a range of concentrations of the tested compounds (0.1 nM-10 mM) in a total volume of 0.5 mL for 90 min at 4° C. The incubation was terminated by dilution to 5 mL with icecold buffer B; this step was followed immediately by rapid filtration through glass fiber Whatman GF/C filters. The filters were washed (2.5 mL) with buffer B, and the amount of radioactivity retained on the filters was determined with a Packard 1600 TR liquid scintillation counter at 66% efficiency. Nonspecific binding was estimated for each sample in the presence of unlabeled 1 mM PK11195. The 50% inhibitory concentrations were determined, and the dissociation constant (Ki) values were derived according to a previously derived equation (Cheng Y., et al. Biochem Pharmacol. 1973; 22:3099-3108). The protein concentration was estimated by the method of Lowry et al. (J Biol Chem. 1951; 193:265-275) with bovine serum albumin (Sigma-Aldrich) as the standard.

TSPO in microglia = TSPO in microglia (Rattus norvegicus (Rat), UniProt P16257); settings: quinolinic acid-injected rat striatum; cited from earlier work
Chain of TSPO in microglia (P16257 whole entry): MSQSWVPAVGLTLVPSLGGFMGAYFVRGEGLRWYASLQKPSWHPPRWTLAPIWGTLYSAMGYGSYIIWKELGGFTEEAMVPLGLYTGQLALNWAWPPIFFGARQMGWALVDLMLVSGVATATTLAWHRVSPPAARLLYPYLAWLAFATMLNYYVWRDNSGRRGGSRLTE

Chain of TSPO (P16257 whole entry, looked up): as the sequence (P16257 whole entry) above

SMILES | Ki (TSPO) [nM] | effect on microglial activation and neuronal death (TSPO in microglia)
CCN(CC)C(=O)C(Oc1ccc(Cl)cc1-n1cccc1)c1ccc(OC)cc1 (centres unmarked) | 5.7 | 
CCN(CC)C(=O)Cc1c(-c2ccc(Cl)cc2)nc2c(C)cc(C)nn12 | 0.45 | 
CCN(CC)C(=O)Cc1c(-c2ccc(F)cc2)nc2c(C)cc(C)nn12 | 2.4 | 
CCN(CC)C(=O)Cc1c(-c2ccc(C)cc2)nc2c(C)cc(C)nn12 | 0.46 | 
CCN(CC)C(=O)C(Oc1cccnc1-n1cccc1)c1ccc(OC)cc1 (centres unmarked) | 4 | 
CCN(CC)C(=O)C(Oc1ccccc1-n1cccc1)c1ccc(OC)cc1 (centres unmarked) | 5 | 
CCN(CC)C(=O)Cc1c(-c2ccc(Br)cc2)nc2c(C)cc(C)nn12 | 0.97 | 
CCC(C)N(C)C(=O)c1cc2ccccc2c(-c2ccccc2Cl)n1 (centres unmarked) [PK 11195] |  | reduces microglial activation and neuronal death
